From US6635628B2, “Methods of administering camptothecin compounds for the treatment of cancer with reduced side effects” (The George Washington University, priority 1998, dated 2003)
“Also recorded” adds a separate entry of the source. Where two headings read alike, the source gives them in different places. Marks after values point to notes of the source that are not given here.

Key:
[1] = tested on: ileal cells; assay type: in vitro ADME, hamster
Description: (§1) The other drugs were dissolved in distilled water. […] DNP-SG was made from glutathione and CDNB (1-chloro-2,4-dinitro benzene) chemically. All other reagents were of analytical grade. Adult male Golden Syrian hamsters (6-8 weeks age), whose model presents a bile acid profile similar to that observed in human (28), were used.
(§2) Intestinal cells were isolated as previously described (28, 29). Briefly, male hamsters were anesthetized with sodium pentobarbital (Nembutol 70 mg/kg body weight). The entire intestine was removed. The intestinal lumen was washed with 37° C. Hank's solution. Sacs of the ileum (12.5 cm from cecum) and jejunum (remaining small intestine) were rinsed, as well as the intestinal sacs of the anal site of small intestine (12.5 cm from cecum) and oral site (the other small intestine). The sacs were rinsed with oxygenated buffer solution containing sodium citrate (96 mM NaCl, 1.5 mM KCl, 5.6 mM KH2PO4, 27 mM sodium citrate, pH 7.3), and incubated for 10 min in the same buffer at 37° C. The sacs were then emptied, filled with oxygenated buffer solution containing EDTA (140 mM NaCl, 16 mM Na2HPO4, 2 mM EDTA, 0.5 mM dithiothreitol, pH 7.3), incubated for 10 min at 37° C. Then each sac was placed onto a petri dish and gently vortexed for 1 min. The buffer containing intestinal cells was recovered in 50 mL of Hanks' solution, washed twice and adjusted at 10^6 cells/ml in Hanks' medium (cellular stock solution containing 0.5% bovine serum albumin, pH 7.4).
(§3) The cellular suspension of 0.95 ml was incubated for 15 min in a 37° C. water bath with stirring. Uptake was started by the addition of 0.05 ml PBS (at pH 3 or 9) containing labeled SN-38 or CPT-11 at 37° C. At various time intervals, 100 μL, sample aliquots were diluted into 3 mL of Hank's medium at 4° C. to stop the uptake. The stop solution containing the cells was filtered through a glass microfiber filter (Glass Fiber Filter Circles G4, Fisherbrand, Pa.) under vacuum (20 psi). The cells were washed once with 5 mL of 0.5% bovine serum albumin-containing Hanks' medium (4° C.) and once with 20 mL of Hanks' solution (4° C.). The filters were placed in a vial containing 4 mL of scintillation liquid (Ultra Gold, Packard, Conn.) and the radioactivity was counted in a β scintillation counter (LS3801, Beckman, Md.).
(§4) The effect of the metabolic inhibitor, 2,4 dinitrophenol (1 mM), was studied by adding this agent to the cells 3 min prior to either ^14C-CPT-11 or ^14C-SN-38 (2 μM). The effect of 20 mM of taurocholic acid (TCA) on the uptake of both CPT-11 and SN-38 was investigated following overnight incubation of ^14C-CPT-11 (20 μM) and ^14C-SN-38 (2 μM) in Hank's solution, at pH 7.4 and in the presence and absence of TCA. The effect of 200 μM of DNP-SG or SN-38-Glu was also studied by adding these agents to the cell preparation 7 min prior to either ^14C-CPT-11 (20 μM) and ^14C-SN-38 (2 μM).
(§5) The initial rate of uptake of CPT-11 or SN-38 was derived from the linear regression analysis of the respective regression line obtained from the plot of the uptake as a function of time. The initial rates of uptake were plotted against the corresponding concentration. The data were fitted by least-squares nonlinear regression analysis (SigmaStat, Jandel Scientific, CA), using the equation V=(Vmax·S)/(Km+S)+Kd·S where V represents the initial rate of uptake. Vmax is the maximum rate of uptake, Km is the apparent Michaelis constant, Kd is the rate of diffusion and S is the concentration of CPT-11 or SN-38.

[2] = tested on: isolated intestinal cells from jejunum; assay type: in vitro ADME, hamster
Description: as §1, §2, §3, §4, §5

[3] = tested on: intestinal cells from whole small-intestine; assay: Uptake of 14C-labeled CPT-11 and SN-38 by intestinal cells, regions combined or not distinguished (TCA, pH, bicarbonate effects); settings: for uptake rate of the lactone compared with the carboxylate form: cells from both intestinal regions; for saturability of the uptake (predominant component): SN-38 concentrations lower than 2 μM
Description: By adding the drugs to Hank's solution containing intestinal cells from whole small-intestine, uptake studies were performed.
as §2, §3, §4
The effect of physiologic pH on the initial intestinal uptake rate of CPT-11 and SN-38 was investigated following overnight incubation of ^14C-CPT-11 (20 μM) and ^14C-SN-38 (2 μM) in phosphate buffered saline at pH 6.2, 6.8, 7.4 and 8, respectively.
as §5

[4] = assay type: physicochemical; settings: 1,000-molecular weight cut-off membrane
Excerpt: Monomers were separated from micellar aggregates by ultrafiltration through a 1000-molecular weight cut-off membrane (YM1) as described in Materials and Methods. Values are the monomeric forms of the indicated metabolites, expressed as a percentage (%) of the concentration of the initial solution before ultrafiltration. Comparison between TCA and control was estimated by Mann-Whitney test. […] Abbreviations used: CPT lactone (CPT lact.); CPT carboxylate (CPT carb.); SN-38 lactone (SN lact.); and SN-38 carboxylate (SN carb.).

[5] = bile of two men treated by cisplatin who received CPT-11 intravenously; cited from earlier work
[6] = CPT-11 metabolite formed by hepatic cytochrome P-450 3A; cited from earlier work
[7] = bile acid micelles; cited from earlier work
[8] = cited from earlier work
[9] = cited from earlier work; remark: listed apart in the source
[10] = 20 μM 14C-CPT-11, 2 μM 14C-SN-38
[11] = % of control, inhibitor 200 μM added 7 min before [14C]CPT-11 (20 μM), n=5
[12] = % of control, inhibitor 200 μM added 7 min before [14C]SN-38 (2 μM), n=5
[13] = % of control, inhibitor 1 mM added 3 min before [14C]CPT-11 (20 μM), n=5
[14] = % of control, inhibitor 1 mM added 3 min before [14C]SN-38 (2 μM), n=5

## N[C@@H](CCC(=O)N[C@@H](CSc1ccc([N+](=O)[O-])cc1[N+](=O)[O-])C(=O)NCC(=O)O)C(=O)O [DNP-SG, 2,4-dinitrophenyl-S-glutathione]
[1]
  initial uptake rate of CPT-11 carboxylate, ileum: 105.8%
  initial uptake rate of SN-38 carboxylate, ileum: 28.5* %
[2]
  initial uptake rate of CPT-11 carboxylate, jejunum: 103.2%
  initial uptake rate of CPT-11 lactone, jejunum: 105.4%
  initial uptake rate of SN-38 carboxylate, jejunum: 32.0* %
  initial uptake rate of SN-38 lactone, jejunum: 78.8%
[3]
  effect of the added agent on the uptake rate of SN-38 lactone: not significantly affected
[3]; intestinal region not given
  effect of the added agent on the uptake of CPT-11 carboxylate: remained unchanged
  effect of the added agent on the uptake rate of CPT-11 lactone: not significantly affected

## CCc1c2c(nc3ccc(OC(=O)N4CCC(N5CCCCC5)CC4)cc13)-c1cc([C@@](O)(CC)C(=O)O)c(CO)c(=O)n1C2 [CPT-11 carboxylate]
[1]; ileum, fit V=(Vmax·S)/(Km+S)+Kd·S, mean, read-out: Km (apparent Michaelis constant of uptake)
  Km: 50.5 µM
[1]; ileum, nonlinear regression fit, mean
  Vmax (maximum rate of uptake): 157.3 p mol · 10 ^6 cells^−1 · min^−1
[2]; jejunum, fit V=(Vmax·S)/(Km+S)+Kd·S, mean, read-out: Km (apparent Michaelis constant of uptake)
  Km: 51.3 µM
[2]; jejunum, nonlinear regression fit, mean
  Vmax (maximum rate of uptake): 146.9 p mol · 10 ^6 cells^−1 · min^−1
[3]
  transport mechanism in intestinal cells: actively absorbed

## CCc1c2c(nc3ccc(O)cc13)-c1cc3c(c(=O)n1C2)COC(=O)[C@]3(O)CC [SN-38 lactone]
[3]
  transport mechanism in intestinal cells: passively transported
[3]; [10]
  uptake rate of the lactone compared with the carboxylate form: more rapidly taken up; also recorded: several times greater
[3]; jejunal and ileal cells
  saturability of the uptake (predominant component): mostly non-saturable
[4]
  effect of TCA on % monomer concentration / association to TCA micelles: significantly decreased

## CCc1c2c(nc3ccc(O[C@@H]4O[C@H](C(=O)O)[C@@H](O)[C@H](O)[C@H]4O)cc13)-c1cc3c(c(=O)n1C2)COC(=O)[C@]3(O)CC [SN38-Glu, SN-38 β-glucuronide]
[1]; [11]
  initial uptake rate of CPT-11 carboxylate, ileum: 93.9%
[1]; [12]
  initial uptake rate of SN-38 carboxylate, ileum: 28.9* %
[2]; [11]
  initial uptake rate of CPT-11 carboxylate, jejunum: 108.9%
  initial uptake rate of CPT-11 lactone, jejunum: 88.9%
[2]; [12]
  initial uptake rate of SN-38 carboxylate, jejunum: 40.1* %
  initial uptake rate of SN-38 lactone, jejunum: 54.3%
[3]; intestinal region not given
  effect of the added agent on the uptake of CPT-11 carboxylate: remained unchanged
  effect of the added agent on the uptake rate of CPT-11 lactone: not significantly affected
  effect of the added agent on the uptake rate of SN-38 lactone: not significantly affected
[5]
  share of the biliary content: 7.3-18.9%

## CCc1c2c(nc3ccc(OC(=O)N4CCC(NCCCCC(=O)O)CC4)cc13)-c1cc3c(c(=O)n1C2)COC(=O)C3(O)CC (stereo not drawn) [7-ethyl-10-[4-N-(5-aminopentanoic acid)-1-piperidino]carbonyloxycamptothecin]
[6]
  antitumor activity weaker than SN-38: 500 fold

## CC(C)CCC[C@@H](C)[C@H]1CC[C@H]2[C@@H]3CC=C4C[C@@H](O)CC[C@]4(C)[C@H]3CC[C@]12C [cholesterol]
[7]
  percentage of the monomer concentration (comparison values): 3%

## CCCCCCCC/C=C\CCCCCCCC(=O)O [oleic acid]
[7]
  percentage of the monomer concentration (comparison values): 2.3%

## O=[N+]([O-])c1ccc(O)c([N+](=O)[O-])c1 [Dinitrophenol, 2,4-dinitrophenol]
[1]; [13]
  initial uptake rate of CPT-11 carboxylate, ileum: 29.2%
  initial uptake rate of CPT-11 lactone, ileum: 105.5%
[1]; [14]
  initial uptake rate of SN-38 carboxylate, ileum: 30.8%
  initial uptake rate of SN-38 lactone, ileum: 134.9%
[2]; [13]
  initial uptake rate of CPT-11 carboxylate, jejunum: 22.6%
  initial uptake rate of CPT-11 lactone, jejunum: 94.1%
[2]; [14]
  initial uptake rate of SN-38 carboxylate, jejunum: 25.5%
  initial uptake rate of SN-38 lactone, jejunum: 96.1%
[3]; intestinal region not given
  effect of the added agent on the uptake rate of CPT-11 lactone: not significantly affected
  effect of the added agent on the uptake rate of SN-38 lactone: not significantly affected

## CCc1c2c(nc3ccc(OC(=O)N4CCC(N5CCCCC5)CC4)cc13)-c1cc3c(c(=O)n1C2)COC(=O)[C@]3(O)CC.Cl [CPT-11, (4S)-4,11-diethyl-4-hydroxy-9-[(4-piperidinopiperidino)carbonyloxy]1H-pyrano [3′,4′:6,7] indolizino[1,2-b]quinoline-3,14(4 h, 12H)dione hydrochloride]
[3]
  initial uptake rate at acidic pH (pH 6.2 and 6.8) versus neutral or alkaline pH (pH 7.4 and 8): several times greater
[3]; cells from jejunum and ileum combined, 14C-CPT-11 20 μM, 14C-SN-38 2 μM, pH 7.4, mean±SD, n=5
  initial uptake rate in the presence of 20 mM TCA: 48.5±10.8 % of control without TCA
[3]; pH 6.2 to 8, 20 μM 14C-CPT-11, 2 μM 14C-SN-38
  decrease of the uptake rate at a pH greater than 6.8: around 65%
[3]; pH adjusted to greater than 7
  uptake when HEPES of the Hank's buffer was replaced by sodium bicarbonate: decreased
[8]
  share in lactone form at pH 7.4: 13%
[9]; before adoption of loperimide therapy
  incidence of grade 4 diarrhea: 17%
[9]; following adoption of an aggressive loperimide therapy
  incidence of grade 4 diarrhea: 5%
[5]
  share of the biliary content: 75.6-91.9%

## CCc1c2c(nc3ccc(OC(=O)N4CCC(N5CCCCC5)CC4)cc13)-c1cc3c(c(=O)n1C2)COC(=O)[C@]3(O)CC [CPT-11 lactone]
[3]
  transport mechanism in intestinal cells: passively transported
[3]; [10]
  uptake rate of the lactone compared with the carboxylate form: more rapidly taken up; also recorded: several times greater
[3]; jejunal and ileal cells
  Kd lower than that of SN-38 lactone: 1.8-2.5 fold
  saturability of the uptake (predominant component): non-saturable
[4]
  effect of TCA on % monomer concentration / association to TCA micelles: significantly decreased
